Results as given in patent US20250163057A1, “DCN-1 MODULATING COMPOUNDS AND METHODS OF USE THEREOF” (Cellarity, Inc., priority 2023, published 2025).
Where a name gives a salt, the structure may show the parent alone. Read-outs that look alike come from different tables or passages of the source.

Tests used:
[1] = test system: Cullin-3 (CUL3) neddylation; assay: AlphaLISA assay for Cullin-3 (CUL3) neddylation in TF 1 cells; type: cell-based; conditions: Homo sapiens, TF-1, 3 h, 3 hours treatment
Procedure, shortened: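 TF 1 cells in unsupplemented IMDM treated with compound concentrations for 3 h, then lysed. CUL3 neddylation detected by AlphaLISA (biotinylated anti-NEDD8, anti-CUL3 acceptor beads overnight, streptavidin donor beads 1 h); normalized to vehicle (0%) and 1 μM DI-1548 (100%), IC50 from Hill fits.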

[2] = target: DCN1 (DCUND1) protein PONY domain (Homo sapiens (Human), UniProt Q96GG9); assay: TR-FRET assay, DCN1 binding with FAM-labeled probe
Sequence of DCN1 (DCUND1) protein PONY domain (Q96GG9 60-248): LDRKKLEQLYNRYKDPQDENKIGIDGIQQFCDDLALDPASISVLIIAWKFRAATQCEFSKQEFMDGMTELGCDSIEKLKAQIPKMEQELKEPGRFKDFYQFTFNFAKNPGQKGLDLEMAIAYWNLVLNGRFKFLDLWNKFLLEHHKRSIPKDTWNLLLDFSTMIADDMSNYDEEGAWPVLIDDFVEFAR
Procedure, shortened: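 Biotinylated DCN1 PONY domain, labeled with streptavidin-Tb, was competed against a FAM-labeled non-covalent DCN1 inhibitor probe in buffer with TritonX and 200 mM NaCl. Conditions were 5 nM DCN1 with 20 nM FAM-probe, or 0.31 nM DCN1 with 100 nM FAM-plus 800 nM unlabeled probe. The TR-FRET ratio was read at 1, 5 and 24 h (0.1% DMSO).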

[3] = 24 hr after treatment with compound, read-out: TR FRET IC50 24 hr
[4] = TR FRET IC50 1 hr (nM), 1 hr after treatment with compound
[5] = read-out: TR FRET IC50 1 hr, 1 hr after treatment with compound

CCN1C(=O)[C@@H](NC(=O)c2cccc(C(F)(F)F)c2)[C@@H](C2CC2)c2c(C(=O)N3CC[C@H]3C#N)nn(-c3ccccc3)c21 [Compound I-561]
IC50 [1]: ≤ 0.1 µM
IC50 [2, 3]: ≤ 200 nM
IC50 [2, 4]: 1000 to 3000 nM

CCN1C(=O)[C@@H](NC(=O)c2ccc3cn[nH]c3c2)[C@@H](C2CC2)c2c(C(=O)N3[C@H](C#N)C[C@H]4C[C@H]43)nn(C3CCOCC3)c21 [Compound I-563]
IC50 [1]: > 1 µM
IC50 [2, 3]: 1000 to 3000 nM
IC50 [2, 4]: 1000 to 3000 nM

CCN1C(=O)[C@@H](NC(=O)c2ccc3ncoc3c2)[C@@H](C2CC2)c2c(C(=O)N3[C@H](C#N)C[C@H]4C[C@H]43)nn(C3CCOCC3)c21 [Compound I-564]
IC50 [1]: > 1 µM
IC50 [2, 3]: 1000 to 3000 nM
IC50 [2, 4]: 1000 to 3000 nM

CCN1C(=O)[C@@H](NC(=O)c2cccc3ncoc23)[C@@H](C2CC2)c2c(C(=O)N3[C@H](C#N)C[C@H]4C[C@H]43)nn(C3CCOCC3)c21 [Compound I-565]
IC50 [1]: ≤ 0.1 µM
IC50 [2, 3]: ≤ 200 nM
IC50 [2, 4]: 200 to 1000 nM

CCN1C(=O)[C@@H](NC(=O)[C@H]2C[C@@H]3CCCC[C@@H]3N2)[C@@H](C2CC2)c2c(C(=O)N3[C@H](C#N)C[C@H]4C[C@H]43)nn(C3CCOCC3)c21 [Compound I-566]
IC50 [1]: > 1 µM
IC50 [2, 3]: 1000 to 3000 nM
IC50 [2, 4]: 1000 to 3000 nM

CCCn1nc(C(=O)N(C)C(C)C#N)c2c1N(CC)C(=O)[C@@H](NC(=O)c1cccc(C(F)(F)F)c1)[C@H]2C1CC1 (stereo partly drawn) [Compound I-569]
IC50 [1]: ≤ 0.1 µM
IC50 [2, 3]: ≤ 200 nM
IC50 [2, 4]: 200 to 1000 nM

CCN1C(=O)[C@@H](NC(=O)c2cccc(C(F)(F)F)c2)[C@@H](c2ccc(F)cc2)c2c(C(=O)N3CC[C@@H]3C#N)nn(-c3ccccc3)c21 [Compound I-570]
IC50 [1]: 0.1 to 1 µM
IC50 [2, 3]: 200 to 1000 nM
IC50 [2, 4]: 1000 to 3000 nM

CCCn1nc(C(=O)N2CCC[C@H]2C#N)c2c1N(CC)C(=O)[C@H](NC(=O)c1cccc(C(F)(F)F)c1)[C@@H]2C1CC1 [Compound I-571]
IC50 [1]: > 1 µM
IC50 [2, 3]: 1000 to 3000 nM
IC50 [2, 4]: 1000 to 3000 nM

CCCn1nc(C(=O)N(CC#N)C2CC2)c2c1N(CC)C(=O)[C@H](NC(=O)c1cccc(C(F)(F)F)c1)[C@@H]2c1ccc(F)cc1 [Compound I-572]
IC50 [1]: > 1 µM
IC50 [2, 3]: 1000 to 3000 nM
IC50 [2, 4]: 1000 to 3000 nM

CCN1C(=O)[C@@H](NC(=O)c2cccc(C(F)(F)F)c2)[C@@H](c2ccc(F)cc2)c2c(CN(C#N)CCCN3CC4(COC4)C3)nn(-c3ccccc3)c21 [Compound I-577]
IC50 [1]: > 1 µM
IC50 [2, 3]: 200 to 1000 nM
IC50 [2, 4]: 200 to 1000 nM

CCN1C(=O)[C@@H](NC(=O)c2cccc(C(F)(F)F)c2)[C@@H](c2ccc(F)cc2)c2c([C@@H](C)N(C#N)CCCN(C)C)nn(-c3ccccc3)c21 [Compound I-578, N-((4S,5S)-3-((R)-1-(N-(3-(dimethylamino)propyl)cyanamido)ethyl)-7-ethyl-4-(4-fluorophenyl)-6-oxo-1-phenyl-4,5,6,7-tetrahydro-1H-pyrazolo[3,4-b]pyridin-5-yl)-3-(trifluoromethyl)benzamide]
IC50 [1]: 0.1 to 1 µM
IC50 [2, 3]: 1000 to 3000 nM
IC50 [2, 4]: 1000 to 3000 nM

CCN1C(=O)[C@@H](NC(=O)c2cccc(C(F)(F)F)c2)[C@@H](c2ccc(F)cc2)c2c(CN(C#N)CCCN3CCC4(CC3)COC4)nn(-c3ccccc3)c21 [Compound I-579]
IC50 [1]: ≤ 0.1 µM
IC50 [2, 3]: ≤ 200 nM
IC50 [2, 5]: ≤ 200 nM

CCN1C(=O)[C@H](NC(=O)c2cccc(C(F)(F)F)c2)[C@H](c2ccc(F)cc2)c2c(C(=O)N3CCC[C@H]3C#N)nn(-c3cccc(OCCCN4CCC5(CC4)COC5)c3)c21 [Compound I-581]
IC50 [1]: > 1 µM
IC50 [2, 3]: 200 to 1000 nM
IC50 [2, 4]: 1000 to 3000 nM

CCN1C(=O)[C@H](NC(=O)c2cccc(C(F)(F)F)c2)[C@H](c2ccc(F)cc2)c2c(C(=O)N3CCC[C@H]3C#N)nn(-c3cccc(OCCN(C)C4COC4)c3)c21 [Compound I-584]
IC50 [1]: > 1 µM
IC50 [2, 3]: 1000 to 3000 nM
IC50 [2, 4]: 1000 to 3000 nM

CCN1C(=O)[C@@H](NC(=O)c2nc(C(F)(F)F)cs2)[C@@H](c2ccc(F)cc2)c2c(C(=O)N3CCC[C@H]3C#N)nn(C3CCOCC3)c21 [Compound I-586]
IC50 [1]: ≤ 0.1 µM
IC50 [2, 3]: 200 to 1000 nM
IC50 [2, 4]: 1000 to 3000 nM

CCN1C(=O)[C@@H](NC(=O)c2cccc(C(F)(F)F)c2)[C@@H](C2CC2)c2c(C(=O)N(C)[C@H](C#N)CCN(C)C)nn(C3CCOCC3)c21 [Compound I-589]
IC50 [1]: ≤ 0.1 µM
IC50 [2, 3]: ≤ 200 nM
IC50 [2, 5]: ≤ 200 nM

CCN1C(=O)[C@@H](NC(=O)c2cccc(C(F)(F)F)c2)[C@@H](C2CCC2)c2c(C(=O)N3[C@H](C#N)C[C@H]4C[C@H]43)nn(C3CCOCC3)c21 [Compound I-593]
IC50 [1]: ≤ 0.1 µM
IC50 [2, 3]: ≤ 200 nM
IC50 [2, 5]: ≤ 200 nM

C#C[C@@H]1CCCN1C(=O)c1nn(C2CCOCC2)c2c1[C@H](C1CC1)[C@H](NC(=O)c1cccc(C(F)(F)F)c1)C(=O)N2CC [Compound I-594]
IC50 [1]: > 1 µM
IC50 [2, 3]: 1000 to 3000 nM
IC50 [2, 4]: 1000 to 3000 nM

CCN1C(=O)[C@@H](NC(=O)Cc2ccccc2)[C@@H](C2CC2)c2c(C(=O)N3[C@H](C#N)C[C@H]4C[C@H]43)nn(C3CCOCC3)c21 [Compound I-595]
IC50 [1]: > 1 µM
IC50 [2, 3]: 1000 to 3000 nM
IC50 [2, 4]: 1000 to 3000 nM

CCN1C(=O)[C@H](NC(=O)c2cccc(C(F)(F)F)c2)[C@@H](c2ccc(F)cc2)c2c(CN3C(=O)CC[C@H]3C#N)nn(-c3ccccc3)c21 [Compound I-596, N-((4S,5R)-3-(((S)-2-cyano-5-oxopyrrolidin-1-yl)methyl)-7-ethyl-4-(4-fluorophenyl)-6-oxo-1-phenyl-4,5,6,7-tetrahydro-1H-pyrazolo[3,4-b]pyridin-5-yl)-3-(trifluoromethyl)benzamide]
IC50 [1]: > 1 µM
IC50 [2, 3]: 1000 to 3000 nM
IC50 [2, 4]: 1000 to 3000 nM

CCN1C(=O)[C@H](NC(=O)c2cccc(C(F)(F)F)c2)[C@H](c2ccc(F)cc2)c2c([C@@H](C)NC#N)nn(C3CCOCC3)c21 [Compound I-597]
IC50 [1]: > 1 µM
IC50 [2, 3]: 1000 to 3000 nM
IC50 [2, 4]: 1000 to 3000 nM

CCN1C(=O)[C@H](NC(=O)c2cccc(C(F)(F)F)c2)[C@H](C)c2c(C(=O)N3[C@H](C#N)C[C@H]4C[C@H]43)nn(C3CCOCC3)c21 [Compound I-599]
IC50 [1]: 0.1 to 1 µM
IC50 [2, 3]: 1000 to 3000 nM
IC50 [2, 4]: 1000 to 3000 nM

CCN1C(=O)[C@@H](NC(=O)c2ccc3c(c2)COC3)[C@@H](C2CC2)c2c(C(=O)N3[C@H](C#N)C[C@H]4C[C@H]43)nn(C3CCOCC3)c21 [Compound I-600]
IC50 [1]: ≤ 0.1 µM
IC50 [2, 3]: ≤ 200 nM
IC50 [2, 4]: 200 to 1000 nM

CCN1C(=O)[C@@H](NC(=O)c2ccc3ocnc3c2)[C@@H](C2CC2)c2c(C(=O)N3[C@H](C#N)C[C@H]4C[C@H]43)nn(C3CCOCC3)c21 [Compound I-601]
IC50 [1]: 0.1 to 1 µM
IC50 [2, 3]: 200 to 1000 nM
IC50 [2, 4]: 1000 to 3000 nM

CCN1C(=O)[C@@H](NC(=O)c2cccc3[nH]ncc23)[C@@H](C2CC2)c2c(C(=O)N3[C@H](C#N)C[C@H]4C[C@H]43)nn(C3CCOCC3)c21 [Compound I-602]
IC50 [1]: > 1 µM
IC50 [2, 3]: 1000 to 3000 nM
IC50 [2, 4]: 1000 to 3000 nM

CCN1C(=O)[C@@H](NC(=O)c2cccc(C(F)(F)F)c2)[C@@H](c2ccc(F)cc2)c2c(CN(C)C/C=C/C(=O)OC(C)(C)C)nn(-c3ccccc3)c21 [Compound I-604, tert-butyl (E)-4-((((4S,5S)-7-ethyl-4-(4-fluorophenyl)-6-oxo-1-phenyl-5-(3-(trifluoromethyl)benzamido)-4,5,6,7-tetrahydro-1H-pyrazolo[3,4-b]pyridin-3-yl)methyl)(methyl)amino)but-2-enoate]
IC50 [1]: > 1 µM
IC50 [2, 3]: 1000 to 3000 nM
IC50 [2, 4]: 1000 to 3000 nM

C=CC(=O)N[C@H](C)c1nn(-c2ccccc2)c2c1[C@H](c1ccc(F)cc1)[C@@H](NC(=O)c1nccc(C(F)(F)F)n1)C(=O)N2CC [Compound I-605]
IC50 [1]: > 1 µM
IC50 [2, 3]: 1000 to 3000 nM
IC50 [2, 4]: 1000 to 3000 nM

CCN1C(=O)[C@@H](NC(=O)c2cccc(C(F)(F)F)c2)[C@@H](c2ccc(F)cc2)c2c(CN(C)C/C=C/C(=O)N3CCCC3)nn(-c3ccccc3)c21 [Compound I-606]
IC50 [1]: > 1 µM
IC50 [2, 3]: 200 to 1000 nM
IC50 [2, 4]: 200 to 1000 nM

CCN1C(=O)[C@@](CO)(NC(=O)c2cccc(C(F)(F)F)c2)[C@@H](c2ccc(F)cc2)c2c([C@@H](C)NC#N)nn(-c3ccccc3)c21 [Compound I-608]
IC50 [1]: > 1 µM
IC50 [2, 3]: ≤ 200 nM
IC50 [2, 4]: 1000 to 3000 nM

CCN1C(=O)[C@H](NC(=O)c2cccc(C(F)(F)F)c2)[C@@H](c2ccc(F)cc2)c2c([C@@H](C)N(C#N)CCCN(C)C)nn(-c3ccccc3)c21 [Compound I-609, N-((4S,5R)-3-((R)-1-(N-(3-(dimethylamino)propyl)cyanamido)ethyl)-7-ethyl-4-(4-fluorophenyl)-6-oxo-1-phenyl-4,5,6,7-tetrahydro-1H-pyrazolo[3,4-b]pyridin-5-yl)-3-(trifluoromethyl)benzamide formate]
IC50 [1]: > 1 µM
IC50 [2, 3]: ≤ 200 nM
IC50 [2, 5]: ≤ 200 nM

CCN1C(=O)[C@H](NC(=O)c2cccc(C(F)(F)F)c2)[C@H](c2ccc(F)cc2)c2c(C(=O)N3CCC[C@H]3C#N)nn(-c3ccccc3)c21 [Compound I-611]
IC50 [1]: > 1 µM
IC50 [2, 3]: 1000 to 3000 nM
IC50 [2, 4]: 1000 to 3000 nM

CCN1C(=O)[C@@H](NC(=O)c2cccc(C(F)(F)F)c2)[C@@H](c2ccc(F)cc2)c2c(CN(C#N)CCCN3CCN(C4COC4)CC3)nn(-c3ccccc3)c21 [Compound I-614]
IC50 [1]: ≤ 0.1 µM
IC50 [2, 3]: ≤ 200 nM
IC50 [2, 4]: 200 to 1000 nM
